In ChEMBL document CHEMBL4507276 (2021):

Columns and labels:
Conditions in all cases: Compound concentration 1000.0 nM
[1] = target: T1, Activin receptor type-1 (Homo sapiens) (UniProt Q04771)
T1 sequence (whole entry): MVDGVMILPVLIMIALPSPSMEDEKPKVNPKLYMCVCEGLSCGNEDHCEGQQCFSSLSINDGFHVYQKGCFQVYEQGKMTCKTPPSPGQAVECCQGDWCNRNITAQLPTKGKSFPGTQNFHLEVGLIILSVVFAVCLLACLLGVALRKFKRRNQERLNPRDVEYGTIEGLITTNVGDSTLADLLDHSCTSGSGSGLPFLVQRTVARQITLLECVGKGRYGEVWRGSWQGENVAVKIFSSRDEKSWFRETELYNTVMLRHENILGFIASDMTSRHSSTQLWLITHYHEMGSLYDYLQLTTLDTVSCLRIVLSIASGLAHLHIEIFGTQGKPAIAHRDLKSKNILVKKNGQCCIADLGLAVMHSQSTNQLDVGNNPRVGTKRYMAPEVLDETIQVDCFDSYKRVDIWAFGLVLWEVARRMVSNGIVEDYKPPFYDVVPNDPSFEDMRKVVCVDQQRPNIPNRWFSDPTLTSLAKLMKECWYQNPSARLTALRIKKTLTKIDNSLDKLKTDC

[2] = target: T2, Discoidin domain-containing receptor 2 (Homo sapiens) (UniProt Q16832)
T2 sequence (whole entry): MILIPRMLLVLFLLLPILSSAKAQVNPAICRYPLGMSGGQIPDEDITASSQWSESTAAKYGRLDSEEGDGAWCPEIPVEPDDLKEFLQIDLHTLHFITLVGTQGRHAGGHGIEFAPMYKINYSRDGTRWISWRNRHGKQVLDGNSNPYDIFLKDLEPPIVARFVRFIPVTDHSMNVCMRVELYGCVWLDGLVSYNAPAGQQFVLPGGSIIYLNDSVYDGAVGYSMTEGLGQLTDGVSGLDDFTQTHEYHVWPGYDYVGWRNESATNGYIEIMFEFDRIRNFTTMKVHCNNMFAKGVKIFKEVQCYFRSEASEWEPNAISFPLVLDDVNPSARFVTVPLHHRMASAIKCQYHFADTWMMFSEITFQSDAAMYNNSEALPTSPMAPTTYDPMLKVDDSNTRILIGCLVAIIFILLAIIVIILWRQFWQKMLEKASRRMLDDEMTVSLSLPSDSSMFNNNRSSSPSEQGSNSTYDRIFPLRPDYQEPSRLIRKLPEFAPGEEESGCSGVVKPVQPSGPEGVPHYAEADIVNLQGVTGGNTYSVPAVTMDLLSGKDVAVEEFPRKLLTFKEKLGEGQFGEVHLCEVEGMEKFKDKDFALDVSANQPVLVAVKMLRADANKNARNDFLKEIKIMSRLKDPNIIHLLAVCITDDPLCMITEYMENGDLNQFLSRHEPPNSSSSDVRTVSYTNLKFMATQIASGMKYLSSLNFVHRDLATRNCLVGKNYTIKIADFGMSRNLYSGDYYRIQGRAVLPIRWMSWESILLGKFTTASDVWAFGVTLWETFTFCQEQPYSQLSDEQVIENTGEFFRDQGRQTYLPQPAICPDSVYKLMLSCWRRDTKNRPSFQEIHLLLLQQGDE

[3] = target: Mitogen-activated protein kinase kinase kinase 11 (Homo sapiens) (UniProt Q16584)
[4] = target: Proto-oncogene tyrosine-protein kinase receptor Ret (Homo sapiens) (UniProt P07949)
[5] = target: T3, Serine/threonine-protein kinase TAO2 (Homo sapiens) (UniProt Q9UL54)
T3 sequence (whole entry): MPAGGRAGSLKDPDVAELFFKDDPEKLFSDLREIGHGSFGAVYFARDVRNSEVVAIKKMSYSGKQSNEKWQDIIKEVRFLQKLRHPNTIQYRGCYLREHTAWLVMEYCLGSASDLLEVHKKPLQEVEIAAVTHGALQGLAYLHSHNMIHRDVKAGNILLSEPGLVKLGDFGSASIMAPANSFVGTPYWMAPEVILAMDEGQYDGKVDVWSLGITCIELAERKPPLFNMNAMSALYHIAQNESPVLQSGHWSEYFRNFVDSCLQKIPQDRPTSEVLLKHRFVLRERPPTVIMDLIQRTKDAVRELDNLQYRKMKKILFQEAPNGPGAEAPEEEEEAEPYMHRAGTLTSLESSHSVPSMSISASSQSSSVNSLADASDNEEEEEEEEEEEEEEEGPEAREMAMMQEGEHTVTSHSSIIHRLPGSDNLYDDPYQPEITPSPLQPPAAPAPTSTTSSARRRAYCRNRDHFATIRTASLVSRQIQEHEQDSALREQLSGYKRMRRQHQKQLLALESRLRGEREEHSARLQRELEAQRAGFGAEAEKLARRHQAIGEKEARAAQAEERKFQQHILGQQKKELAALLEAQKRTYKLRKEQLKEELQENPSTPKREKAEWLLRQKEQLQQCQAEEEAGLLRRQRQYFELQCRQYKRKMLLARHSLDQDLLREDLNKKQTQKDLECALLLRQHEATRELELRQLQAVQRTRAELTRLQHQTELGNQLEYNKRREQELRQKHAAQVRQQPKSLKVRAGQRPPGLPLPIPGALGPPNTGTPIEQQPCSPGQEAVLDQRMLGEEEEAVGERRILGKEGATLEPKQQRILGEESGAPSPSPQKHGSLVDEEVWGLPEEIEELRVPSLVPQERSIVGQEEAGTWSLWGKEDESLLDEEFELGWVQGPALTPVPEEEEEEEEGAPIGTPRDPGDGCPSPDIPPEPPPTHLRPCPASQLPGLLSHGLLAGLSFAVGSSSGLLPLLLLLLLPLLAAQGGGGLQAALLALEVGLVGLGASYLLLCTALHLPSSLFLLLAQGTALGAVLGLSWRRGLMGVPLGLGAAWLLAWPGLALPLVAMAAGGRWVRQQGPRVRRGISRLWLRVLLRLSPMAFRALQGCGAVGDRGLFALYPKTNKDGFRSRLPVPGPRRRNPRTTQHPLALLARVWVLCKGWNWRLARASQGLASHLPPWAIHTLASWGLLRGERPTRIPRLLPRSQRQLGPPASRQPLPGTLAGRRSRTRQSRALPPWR

Measured: residual activity

Chain of Proto-oncogene tyrosine-protein kinase receptor Ret (Homo sapiens) (P07949 whole entry): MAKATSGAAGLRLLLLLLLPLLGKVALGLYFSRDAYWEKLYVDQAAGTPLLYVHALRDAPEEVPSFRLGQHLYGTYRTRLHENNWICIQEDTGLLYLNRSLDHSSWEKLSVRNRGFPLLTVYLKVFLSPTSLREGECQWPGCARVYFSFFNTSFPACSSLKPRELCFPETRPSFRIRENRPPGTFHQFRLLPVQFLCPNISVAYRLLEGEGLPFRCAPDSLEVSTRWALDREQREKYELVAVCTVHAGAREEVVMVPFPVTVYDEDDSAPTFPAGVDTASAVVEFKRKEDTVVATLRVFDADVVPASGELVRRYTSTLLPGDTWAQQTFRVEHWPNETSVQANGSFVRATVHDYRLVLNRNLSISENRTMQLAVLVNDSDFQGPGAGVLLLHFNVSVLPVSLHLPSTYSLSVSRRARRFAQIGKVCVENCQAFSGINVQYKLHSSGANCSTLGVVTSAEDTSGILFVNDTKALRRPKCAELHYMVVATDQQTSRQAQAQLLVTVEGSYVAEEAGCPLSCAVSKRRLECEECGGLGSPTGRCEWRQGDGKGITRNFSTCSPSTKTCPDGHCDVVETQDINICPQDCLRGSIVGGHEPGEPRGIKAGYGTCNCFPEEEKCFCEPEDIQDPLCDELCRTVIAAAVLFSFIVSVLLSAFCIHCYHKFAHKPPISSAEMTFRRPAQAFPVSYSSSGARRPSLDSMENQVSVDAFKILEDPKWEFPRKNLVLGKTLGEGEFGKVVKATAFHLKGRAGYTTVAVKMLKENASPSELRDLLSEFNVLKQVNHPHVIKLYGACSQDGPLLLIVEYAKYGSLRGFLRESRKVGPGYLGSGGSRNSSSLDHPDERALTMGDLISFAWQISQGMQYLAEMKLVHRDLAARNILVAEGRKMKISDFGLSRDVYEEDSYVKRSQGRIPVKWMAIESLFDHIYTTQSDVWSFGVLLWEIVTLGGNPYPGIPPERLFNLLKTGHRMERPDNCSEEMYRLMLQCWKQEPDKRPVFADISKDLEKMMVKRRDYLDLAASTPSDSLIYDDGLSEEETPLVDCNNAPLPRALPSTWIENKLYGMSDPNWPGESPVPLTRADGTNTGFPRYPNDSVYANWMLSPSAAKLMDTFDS
Chain of Mitogen-activated protein kinase kinase kinase 11 (Homo sapiens) (Q16584 whole entry, looked up): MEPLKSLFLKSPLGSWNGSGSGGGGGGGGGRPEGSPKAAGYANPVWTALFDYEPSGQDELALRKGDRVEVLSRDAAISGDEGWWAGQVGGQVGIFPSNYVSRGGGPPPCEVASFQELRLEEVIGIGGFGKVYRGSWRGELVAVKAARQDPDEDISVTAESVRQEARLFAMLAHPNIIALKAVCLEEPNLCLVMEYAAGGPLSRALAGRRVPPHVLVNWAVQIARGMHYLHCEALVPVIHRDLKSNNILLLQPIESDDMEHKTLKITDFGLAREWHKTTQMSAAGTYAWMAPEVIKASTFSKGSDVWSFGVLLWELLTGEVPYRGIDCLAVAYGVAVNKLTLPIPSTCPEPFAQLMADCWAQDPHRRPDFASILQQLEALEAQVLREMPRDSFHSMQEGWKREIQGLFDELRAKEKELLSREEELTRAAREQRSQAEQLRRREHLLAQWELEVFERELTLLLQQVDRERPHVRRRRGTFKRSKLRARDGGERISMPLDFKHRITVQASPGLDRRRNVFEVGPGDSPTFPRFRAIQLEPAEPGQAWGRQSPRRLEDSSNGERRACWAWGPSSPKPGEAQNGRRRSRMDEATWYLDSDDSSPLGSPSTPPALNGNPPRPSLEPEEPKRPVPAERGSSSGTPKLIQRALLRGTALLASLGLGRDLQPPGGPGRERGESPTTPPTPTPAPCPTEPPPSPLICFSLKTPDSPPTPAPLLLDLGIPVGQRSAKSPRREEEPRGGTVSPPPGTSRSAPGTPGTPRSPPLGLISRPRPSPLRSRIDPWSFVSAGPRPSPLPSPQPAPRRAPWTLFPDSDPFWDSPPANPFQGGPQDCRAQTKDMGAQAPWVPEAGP

CN(C)C(=O)Cn1cc(-c2nc(C3(c4ccc(-c5cnc(N)nc5)cc4)CC3)no2)cn1 [BI 0153]
inactive: [1] 95% | [2] 100% | [3] 87% | [4] 94% | [5] 100%

CN(C)C(=O)Cn1cc(-c2nc([C@@](C)(c3ccc(-c4cnc(N)nc4)cc3)C3CC3)no2)cn1 [BI 665915]
inactive: [1] 84% | [2] 89% | [3] 77% | [4] 94% | [5] 81%
